# Experiments:
# Assay type in all cases: in vivo, human
# [1] = test system: subjects with HD; assay: Phase 3 study: EuroQol 5 Dimensions 5 Levels (EQ-5D-5L)
# From the text: Exploratory endpoints included: • Wearable movement sensors (in select sites; optional participation) using MC10 Inc., BIOSTAMP® NPOINT® system • Huntington Disease Health Index • Changes from the screening period baseline to each postbaseline study visit (Weeks 2 through 12) in the TMC based on site assessments • Changes from the screening period baseline to maintenance (the average of the Week 10 and Week 12 assessments) in the TMC based on video recording central rater assessments • CGI-C response at Weeks 2 through 10 • PGI-C response at Weeks 2 through 10 • The change from baseline to Weeks 4, 8, and 10 in the Neuro-QoL Upper Extremity Function T-score. • The change from baseline to Weeks 4, 8, and 10 in the Neuro-QoL Lower Extremity Function T-score • CGI-S at Weeks 2 through 12 • PGI-S at Weeks 2 through 12 • SF-36 at Week 12 • HD-HI at Week 10 and Week 12 • EQ-5D-5L at Week 10 and Week 12 • UHDRS scores for motor, behavior, and functional capacity assessment at Weeks 2 through 12 • Other UHDRS scores including functional assessment and independence scale at Week 12 • AS at Week 12 • Change from screening period in physical activity by movement sensors at the Week 10 visit period […]
# [2] = test system: subjects with HD; assay: Phase 3 study: Neuro-QoL Upper Extremity Function T-score
# From the text: As used herein, “Neuro-QoL” is a set of self-report measures that assesses the health-related quality of life (HRQOL) of adults and children with neurological disorders. Neuro-QoL Upper Extremity Function scale measures one's ability across fine motor and activities of daily living involving digital, manual and reach-related function and self-care. Neuro-QoL Lower Extremity Function scale measures one's ability to carry out various activities involving the trunk region and increasing degrees of bodily movement, ambulation, balance or endurance. See, National Institute of Neurological Disorders and Stroke (NINDS). User Manual for the Quality of Life in Neurological Disorders (Neuro-QoL) Measures, Version 2.0, March 2015, which is incorporated herein by reference in its entirety.
# A Phase 3, randomized, double-blind, placebo-controlled study to evaluate the efficacy, safety, and tolerability of once-daily valbenazine in subjects with HD was conducted. The study included a 4-week screening period, an 8-week dose-adjustment period, a 4-week maintenance period, and a final study visit 2 weeks following the final dose of study drug. […]
# [3] = test system: subjects with HD; assay: Phase 3 study: Patient Global Impression of Change (PGI-C) response status
# From the text: In certain embodiments, the method is effective to result in an improvement in Patient Global Impression of Change (PGI-C) response status, wherein subjects whose score is either a 1 (“very much improved”) or a 2 (“much improved”) in PGI-C were classified as responders. In certain embodiments, at least about 20%, such as at least about 25%, at least about 30%, at least about 35%, at least about 40%, at least about 50%, at least about 55%, were classified as responders. In certain embodiments, at least about 25% of subjects were classified as responders after 12 weeks of treatment.
# (§1) A Phase 3, randomized, double-blind, placebo-controlled study to evaluate the efficacy, safety, and tolerability of once-daily valbenazine in subjects with HD was conducted. The study included a 4-week screening period, an 8-week dose-adjustment period, a 4-week maintenance period, and a final study visit 2 weeks following the final dose of study drug.
# Secondary endpoints included: • Clinical Global Impression of Change (CGI-C) response status ([…] of “very much improved” or “much improved”) at Week 12; • Patient Global Impression of Change (PGI-C) response status ([…] of “very much improved” or “much improved”) at Week 12; • Change from baseline to Week 12 in the Quality of Life in Neurological Disorders Upper Extremity Function; and • Change from baseline to Week 12 in the Neuro-QoL Lower Extremity Function.
# Exploratory endpoints included: • Wearable movement sensors (in select sites; optional participation) using MC10 Inc., BIOSTAMP® NPOINT® system • Huntington Disease Health Index • Changes from the screening period baseline to each postbaseline study visit (Weeks 2 through 12) in the TMC based on site assessments • Changes from the screening period baseline to maintenance (the average of the Week 10 and Week 12 assessments) in the TMC based on video recording central rater assessments • CGI-C response at Weeks 2 through 10 • PGI-C response at Weeks 2 through 10 • The change from baseline to Weeks 4, 8, and 10 in the Neuro-QoL Upper Extremity Function T-score. • The change from baseline to Weeks 4, 8, and 10 in the Neuro-QoL Lower Extremity Function T-score • CGI-S at Weeks 2 through 12 • PGI-S at Weeks 2 through 12 • SF-36 at Week 12 • HD-HI at Week 10 and Week 12 • EQ-5D-5L at Week 10 and Week 12 • UHDRS scores for motor, behavior, and functional capacity assessment at Weeks 2 through 12 • Other UHDRS scores including functional assessment and independence scale at Week 12 • AS at Week 12 • Change from screening period in physical activity by movement sensors at the Week 10 visit period
# [4] = test system: subjects with HD; assay: Phase 3 study: safety and tolerability (adverse events)
# Description: as §1
# During the dose-adjustment and maintenance periods, the investigator could assess that a dose level is not tolerated if a subject experienced an adverse event (AE) that is (1) deemed associated with the study drug, and (2) of either moderate or severe intensity, or a serious AE.
compound,measurement,setting,value
"COc1cc2c(cc1OC)[C@H]1C[C@@H](OC(=O)[C@@H](N)C(C)C)[C@H](CC(C)C)CN1CC2 [Valbenazine, (S)-2-amino-3-methyl-butyric acid (2R,3R,11bR)-3-isobutyl-9,10-dimethoxy-1,3,4,6,7,11b-hexahydro-2H-pyrido[2,1-a]isoquinolin-2-yl ester]","EQ-5D-5L health index score and distribution of scores for each dimension, differences between treatment groups",[1]; baseline to Weeks 10 and 12,No notable differences between treatment groups were observed
same,EQ-5D-5L shift toward worsening in any dimension,[1]; valbenazine group,index score and distribution of scores for each dimension. No shift
same,"Neuro-QoL Upper Extremity Function T Score CFB @ week 12, LS Mean",[2]; valbenazine group,−1.58
same,"Neuro-QoL Upper Extremity Function T Score CFB @ week 12, LS Mean, Difference",[2]; valbenazine vs placebo,1.42
same,PGI-C response rate difference between treatment groups (valbenazine minus placebo),[3]; Week 2,"through 10 as follows: Week 2 (18.52% [95% CI: 5.48, 31.41],"
same,PGI-C response rate difference between treatment groups (valbenazine minus placebo),[3]; Week 4,"nominal p = 0.0042), Week 4 (18.57% [95% CI: 3.79, 32.70], nominal"
same,PGI-C response rate difference between treatment groups (valbenazine minus placebo),[3]; Week 6,"p = 0.0120), Week 6 (23.08% [95% CI: 5.60, 39.04], nominal"
same,PGI-C response rate difference between treatment groups (valbenazine minus placebo),[3]; Week 8,"p = 0.0064), Week 8 (26.44% [95% CI: 7.70, 42.49], nominal"
same,PGI-C response rate difference between treatment groups (valbenazine minus placebo),[3]; Week 10,"p = 0.0037), and Week 10 (16.94% [95% CI: −1.37, 34.63], nominal"
same,"PGI-C @ week 12, % responders","[3]; Week 12, valbenazine group",52.7%
same,"PGI-C @ week 12, % responders, Difference","[3]; Week 12, valbenazine vs placebo",26.3%
same,SAE and AE leading to discontinuation of study treatment,[4]; both treatment groups,comparable rates and low incidence
same,rates of TEAEs,[4]; both treatment groups,comparable rates of TEAEs in both treatment groups
same,tolerability,[4]; once-daily administration,well tolerated
same,"somnolence (most commonly reported AE), incidence",[4]; valbenazine group,15.6%
same,suicidal behavior or worsening of suicidal ideation,[4]; valbenazine treated subjects,No suicidal behavior or worsening of suicidal ideation was observed
